According to publication PMC9715518, “Human and rat microsomal metabolites of N-tert-butoxycarbonylmethamphetamine and its urinary metabolites in rat” (Forensic Toxicology, 2021):

Legend:
[1] = Microsomal metabolism test, human liver microsomes; conditions: for Detection after incubation of BocMA (LC–QToF–MS): HLM incubation of BocMA; for Share of the degraded products detected as this metabolite: HLM, first 8 min
[2] = Rat administration test, urinary excretion; conditions: for M1–D1 absolute amount in urine after hydrolysis / M1–D1 concentration in urine after hydrolysis / M1–D1 concentration in urine before hydrolysis / M1–D2 absolute amount in urine after hydrolysis / M1–D2 concentration in urine after hydrolysis / M1–D2 concentration in urine before hydrolysis / Detection in rat urine (LC–QToF–MS): BocMA 20 mg/kg i.p.; for Detection in rat urine (LC–QToF–MS): urine 0–72 h, n = 3
[3] = Microsomal metabolism test, rat liver microsomes; conditions: for Detection after incubation of BocMA (LC–QToF–MS): RLM incubation of BocMA; for Share of the degraded products detected as this metabolite: RLM, first 3 min; for Incubation time at which peak intensity was highest: RLM test
[4] = within 3–4 days; cited from earlier work

CC(C(O)c1ccccc1)N(C)C(=O)OC(C)(C)C (single isomer, unassigned) [M1–D1, N-tert-butoxycarbonylephedrine]
Detection after incubation of BocMA (LC–QToF–MS) [1]: produced
Share of the degraded products detected as this metabolite [1]: 10%
M1–D1 absolute amount in urine after hydrolysis ([2]; rat no. 1, urine 0–4 h): 0.69 ng
M1–D1 concentration in urine after hydrolysis ([2]; rat no. 1, urine 0–4 h): 0.46 ng/mL
M1–D1 concentration in urine before hydrolysis ([2]; rat no. 1, urine 0–4 h): 0.47 ng/mL
M1–D1 absolute amount in urine after hydrolysis ([2]; rat no. 1, urine 0–72 h total): 57 ng
M1–D1 absolute amount in urine after hydrolysis ([2]; rat no. 1, urine 4–8 h): 54 ng
M1–D1 concentration in urine after hydrolysis ([2]; rat no. 1, urine 4–8 h): 54 ng/mL
M1–D1 concentration in urine before hydrolysis ([2]; rat no. 1, urine 4–8 h): 0.51 ng/mL
M1–D1 absolute amount in urine after hydrolysis ([2]; rat no. 2, urine 0–4 h): 10 ng
M1–D1 concentration in urine after hydrolysis ([2]; rat no. 2, urine 0–4 h): 5.2 ng/mL
M1–D1 concentration in urine before hydrolysis ([2]; rat no. 2, urine 0–4 h): 6.5 ng/mL
M1–D1 absolute amount in urine after hydrolysis ([2]; rat no. 2, urine 0–72 h total): 260 ng
M1–D1 absolute amount in urine after hydrolysis ([2]; rat no. 2, urine 4–8 h): 180 ng
M1–D1 concentration in urine after hydrolysis ([2]; rat no. 2, urine 4–8 h): 89 ng/mL
M1–D1 concentration in urine before hydrolysis ([2]; rat no. 2, urine 4–8 h): 3.0 ng/mL
M1–D1 absolute amount in urine after hydrolysis ([2]; rat no. 2, urine 8–24 h): 72 ng
M1–D1 concentration in urine after hydrolysis ([2]; rat no. 2, urine 8–24 h): 4.8 ng/mL
M1–D1 concentration in urine before hydrolysis ([2]; rat no. 2, urine 8–24 h): 3.0 ng/mL
M1–D1 absolute amount in urine after hydrolysis ([2]; rat no. 3, urine 0–4 h): 70 ng
M1–D1 concentration in urine after hydrolysis ([2]; rat no. 3, urine 0–4 h): 140 ng/mL
M1–D1 concentration in urine before hydrolysis ([2]; rat no. 3, urine 0–4 h): 50 ng/mL
M1–D1 absolute amount in urine after hydrolysis ([2]; rat no. 3, urine 0–72 h total): 1500 ng
M1–D1 absolute amount in urine after hydrolysis ([2]; rat no. 3, urine 4–8 h): 440 ng
M1–D1 concentration in urine after hydrolysis ([2]; rat no. 3, urine 4–8 h): 220 ng/mL
M1–D1 concentration in urine before hydrolysis ([2]; rat no. 3, urine 4–8 h): 3.2 ng/mL
M1–D1 absolute amount in urine after hydrolysis ([2]; rat no. 3, urine 8–24 h): 860 ng
M1–D1 concentration in urine after hydrolysis ([2]; rat no. 3, urine 8–24 h): 86 ng/mL
M1–D1 absolute amount in urine after hydrolysis ([2]; rat no. 3, urine 24–48 h): 88 ng
M1–D1 concentration in urine after hydrolysis ([2]; rat no. 3, urine 24–48 h): 11 ng/mL
M1–D1 absolute amount in urine after hydrolysis ([2]; rat no. 3, urine 48–72 h): 6.4 ng
M1–D1 concentration in urine after hydrolysis ([2]; rat no. 3, urine 48–72 h): 0.71 ng/mL
Detection after incubation of BocMA (LC–QToF–MS) [3]: detected
Share of the degraded products detected as this metabolite [3]: 5%

CC(C(O)c1ccccc1)N(C)C(=O)OC(C)(C)C (single isomer, unassigned) [M1–D2, N-tert-butoxycarbonylpseudoephedrine]
Detection after incubation of BocMA (LC–QToF–MS) [1]: produced
Share of the degraded products detected as this metabolite [1]: 4%
M1–D2 absolute amount in urine after hydrolysis ([2]; average of 3 rats, urine 0–72 h total): 85 ng
M1–D2 absolute amount in urine after hydrolysis ([2]; rat no. 1, urine 0–4 h): 7.8 ng
M1–D2 concentration in urine after hydrolysis ([2]; rat no. 1, urine 0–4 h): 5.2 ng/mL
M1–D2 concentration in urine before hydrolysis ([2]; rat no. 1, urine 0–4 h): 1.5 ng/mL
M1–D2 absolute amount in urine after hydrolysis ([2]; rat no. 1, urine 0–72 h total): 43 ng
M1–D2 absolute amount in urine after hydrolysis ([2]; rat no. 1, urine 4–8 h): 35 ng
M1–D2 concentration in urine after hydrolysis ([2]; rat no. 1, urine 4–8 h): 35 ng/mL
M1–D2 concentration in urine before hydrolysis ([2]; rat no. 1, urine 4–8 h): 0.67 ng/mL
M1–D2 absolute amount in urine after hydrolysis ([2]; rat no. 2, urine 0–4 h): 24 ng
M1–D2 concentration in urine after hydrolysis ([2]; rat no. 2, urine 0–4 h): 12 ng/mL
M1–D2 concentration in urine before hydrolysis ([2]; rat no. 2, urine 0–4 h): 12 ng/mL
M1–D2 absolute amount in urine after hydrolysis ([2]; rat no. 2, urine 0–72 h total): 52 ng
M1–D2 absolute amount in urine after hydrolysis ([2]; rat no. 2, urine 4–8 h): 28 ng
M1–D2 concentration in urine after hydrolysis ([2]; rat no. 2, urine 4–8 h): 14 ng/mL
M1–D2 concentration in urine before hydrolysis ([2]; rat no. 2, urine 4–8 h): 1.0 ng/mL
M1–D2 absolute amount in urine after hydrolysis ([2]; rat no. 3, urine 0–4 h): 50 ng
M1–D2 concentration in urine after hydrolysis ([2]; rat no. 3, urine 0–4 h): 100 ng/mL
M1–D2 concentration in urine before hydrolysis ([2]; rat no. 3, urine 0–4 h): 8.1 ng/mL
M1–D2 absolute amount in urine after hydrolysis ([2]; rat no. 3, urine 0–72 h total): 160 ng
M1–D2 absolute amount in urine after hydrolysis ([2]; rat no. 3, urine 4–8 h): 66 ng
M1–D2 concentration in urine after hydrolysis ([2]; rat no. 3, urine 4–8 h): 33 ng/mL
M1–D2 concentration in urine before hydrolysis ([2]; rat no. 3, urine 4–8 h): 1.5 ng/mL
M1–D2 absolute amount in urine after hydrolysis ([2]; rat no. 3, urine 8–24 h): 42 ng
M1–D2 concentration in urine after hydrolysis ([2]; rat no. 3, urine 8–24 h): 4.2 ng/mL
Detection after incubation of BocMA (LC–QToF–MS) [3]: detected
Share of the degraded products detected as this metabolite [3]: 40%

CC(N)Cc1ccc(O)cc1 (centres unmarked) [4OHAP, 4-hydroxy amphetamine, reference compound]
Detection after incubation of BocMA (LC–QToF–MS) [1]: not detected
Detection in rat urine (LC–QToF–MS) [2]: not detected
Detection after incubation of BocMA (LC–QToF–MS) [3]: not detected

CNC(C)Cc1ccc(O)cc1 (centres unmarked) [4OHMA, 4-hydroxy methamphetamine, reference compound]
Detection after incubation of BocMA (LC–QToF–MS) [1]: not detected
Detection in rat urine (LC–QToF–MS) [2]: not detected
Detection after incubation of BocMA (LC–QToF–MS) [3]: not detected

CC(N)Cc1ccccc1 (centres unmarked) [AP, amphetamine]
Detection in rat urine (LC–QToF–MS) [2]: not detected
Detection after incubation of BocMA (LC–QToF–MS) [3]: not detected

CC(NC(=O)OC(C)(C)C)C(O)c1ccccc1 (centres unmarked) [Boc-protected nor-ephedrine]
Detection after incubation of BocMA (LC–QToF–MS) [1]: not detected
Detection after incubation of BocMA (LC–QToF–MS) [3]: not detected

CC(C(=O)c1ccccc1)N(C)C(=O)OC(C)(C)C (centres unmarked) [BocMC, N-tert-butoxycarbonyl-2-(methylamino)-1-phenylpropan-1-one, reference compound]
Detection after incubation of BocMA (LC–QToF–MS) [1]: not detected
Detection after incubation of BocMA (LC–QToF–MS) [3]: not detected

CC(C(O)c1ccccc1)N(C)C(=O)OC(C)(C)C (centres unmarked) [M1]
Share of the degraded products detected as this metabolite [1]: 14%
M1 diastereomer ratio (R = M1–D1/M1–D2) ([2]; in vivo, rat urine): ≥ 1
Detection in rat urine (LC–QToF–MS) [2]: detected in urine from all rats
Incubation time at which peak intensity was highest [3]: 3 min
Share of the degraded products detected as this metabolite [3]: 45%
Share of the degraded products detected as this metabolite ([3]; listed as M1 (D1, 2)): ~45%

CC(Cc1ccccc1)NC(=O)OC(C)(C)C (centres unmarked) [M2, N-tert-butoxycarbonylamphetamine]
Detection after incubation of BocMA (LC–QToF–MS) [1]: produced
Detection in rat urine (LC–QToF–MS) [2]: not detected

C[C@@H](Cc1ccc(O)cc1)N(C)C(=O)OC(C)(C)C [M3, N-tert-butoxycarbonyl-4-hydroxymethamphetamine]
Detection after incubation of BocMA (LC–QToF–MS) [1]: produced
Detection in rat urine (LC–QToF–MS) [2]: trace amount of M3 was detected only in the urine collected during 0–4 h from Rat No. 3

CC(NC(=O)OC(C)(C)C)C(=O)c1ccccc1 (centres unmarked) [M4, N-tert-butoxycarbonyl-2-amino-1-phenylpropan-1-one]
Detection after incubation of BocMA (LC–QToF–MS) [1]: produced
Detection in rat urine (LC–QToF–MS) [2]: not detected
Detection after incubation of BocMA (LC–QToF–MS) [3]: detected
Incubation time at which peak intensity was highest [3]: 20 min

C[C@H](NC(=O)OC(C)(C)CO)C(=O)c1ccccc1 [M5]
Detection after incubation of BocMA (LC–QToF–MS) [1]: produced
Urine collection interval with the highest ion peak intensity ([2]; rat urine): 4 to 8 h
Increase of peak intensity after hydrolysis ([2]; rat urine, β-glucuronidase hydrolysis): approximately tenfold
Detection in rat urine (LC–QToF–MS) [2]: detected in urine from all rats
Detection after incubation of BocMA (LC–QToF–MS) [3]: detected
Incubation time at which peak intensity was highest [3]: 60 min

CC1N(C)C(O)(OC(C)(C)C)OC1(O)c1ccccc1 (centres unmarked) [M6]
Detection after incubation of BocMA (LC–QToF–MS) [1]: produced
Detection in rat urine (LC–QToF–MS) [2]: not detected
Detection after incubation of BocMA (LC–QToF–MS) [3]: detected
Incubation time at which peak intensity was highest [3]: 13 min

CC(NC(=O)OC(C)(C)COC1OC(C(=O)O)C(O)C(O)C1O)C(=O)c1ccccc1 (centres unmarked) [M9]
Urine collection interval with the highest ion peak intensity ([2]; rat urine): 4 to 8 h
Detection in rat urine (LC–QToF–MS) [2]: detected in all rat urine collected until 72 h

CN[C@@H](C)Cc1ccccc1 [MA, Methamphetamine]
Detection after incubation of BocMA (LC–QToF–MS) [1]: not detected
Detection in rat urine (LC–QToF–MS) [2]: not detected
Detection after incubation of BocMA (LC–QToF–MS) [3]: not detected
Share of the administered amount excreted in urine [4]: about 80%
